Paper PMC7449455 (PLoS Neglected Tropical Diseases, 2020)
Entries after “also recorded” stand apart in the source; their conditions may differ. Where a name gives a salt, the structure may show the parent alone.

Experiments:
L. major [1] = experiment: L. major ex vivo lymph node explant culture (EVC), luminometry; format: cell-based, Leishmania major; details: 48 h at 34°C, luminescence
Protocol: An ex vivo explant culture (EVC) used in multiple experiments was obtained as previously described. Briefly, the mice were inoculated on the snout and rump with 10^7 metacyclic promastigotes of L. major-LUC. At 3 weeks post-infection (p.i.), the draining lymph nodes (retropharyngeal and sub-iliac) of infected animals were aseptically removed, infiltrated with 2 mg/mL of collagenase D (Roche) and incubated for 30 minutes at 37°C [21]. The cell suspension was washed in DMEM, and re-suspended in 2X supplemented culture medium, composed of DMEM (Cellgro), 10% heat-inactivated FBS (Atlanta Biologicals, Lawrenceville, GA), 2 mM Sodium pyruvate (Sigma, St. Louis MO), 2X MEM amino acids solution (Sigma), and 20 mM HEPES buffer (Cellgro). The EVC 100,000-cell suspension in 100 μL was dispensed in white luminometry plates (Costar) and exposed to 2-fold serial dilutions of 2X H1RAs in 100 μL DMEM (plain culture medium).
(§1) Cells exposed to compounds were lysed and the luciferase signal read in a plate luminometer (FLUOstar Omega, BMG Labtech) after adding 100 μL of luciferin substrate (Promega). The percentage of parasite inhibition compared with the vehicle control was calculated as = 100 - [(parasite counts in treated cells/parasite counts in vehicle wells) x 100]. The EC50 was determined by regression analysis using GraphPad (Prism 5.0) and the mean and standard error from three different experiments was utilized to estimate the final EC50. The anti-leishmanial efficacy of compounds was evaluated using L. major-LUC promastigotes in the logarithmic phase of growth (4 days). The parasites were grown in M199 supplemented with 20% FBS, 0.1% hemin and 10 mM adenine. Then, L. major was harvested and exposed to serial 2-fold dilutions of the compounds in a 100μL volume (10^6 promastigotes/mL) in 96-well white plates. After 48 h at 28°C incubation, the parasites were pelleted by centrifugation, lysed and 100 μL of luciferin substrate was added (Promega). The luciferase signal was read as described above.

[2] = Cytotoxicity in HepG2 cells (CellTiter-Glo); format: cell-based; details: human, HepG2 cell line, ATP quantification
Protocol: (§2) To determine compound toxicity we used the HepG2 cell line (human hepatocellular carcinoma, ATCC HB-8065) as a widely used cell-based assay. The cells were maintained in MEM (Gibco) supplemented with 5% heat-inactivated FBS, 1 mM Sodium pyruvate (Gibco) and 1X MEM amino acids solution (Sigma). Briefly, cells were added to white-bottomed 96-well plates containing 100 μL of serial 2-fold dilutions of the H1RAs. After 24 hours of culture at 37 °C, the percentage of viable cells was determined by ATP quantification using the CellTiter-Glo luminescent Cell Viability Assay (Promega) according to the manufacturer’s instructions. […] At least three different assays were carried out to determine the IVTI of each compound, which was calculated as the ratio between the CC50 obtained in the HepG2 cell line and the EC50 determined in the L. major EVC [21]. To evaluate the cytotoxicity of AZ and FX in peritoneal macrophages, adherent cells obtained from peritoneal lavage of naïve mice (10,000/well) were exposed during 24 hours at 37°C to serial drug concentrations (0.09 μM—200 μM). Cell viability was determined by CellTiter-Glo (Promega).

[3] = Cytotoxicity in naive mouse peritoneal macrophages (CellTiter-Glo); format: cell-based; details: read-out: CC50 (toxicity in peritoneal macrophages)
Protocol: as §2

[4] = system: h1r, il-1ẞ, IL-6 expression; experiment: Gene expression by qPCR in L. major ex vivo lymph node explant culture; format: cell-based, mouse; details: EVC; for expression of H1R / expression of IL-1ẞ: quantitative PCR
Protocol: After 48 h of ex vivo treatments, the samples were lysed in 10 μL of IGEPAL lysis buffer (10 mM Tris-HCL ph7.4 + 0.3% IGEPAL, 0.1% BSA + 150 mM NaCl and 1,500 cells/μL) and reverse transcribed (High-Capacity cDNA Reverse Transcription Kit, ThermoFisher Sci.). Mouse h1r, il-1ẞ, and Leishmania 18s genes were amplified by qPCR using the following primers: mouse h1r: Fw- […]; Rev-[…] (PrimerBank database; ID and 31542963a1); Mouse il-1β: Fw- […]; Rev- […]); Leishmania 18s: Fw-[…]; Rev- […] [28]. Amplicons were detected with SYBR. The fold change of gene expression was estimated by the delta CT method using the host cell 18s as reference gene. The percentage of parasite load was calculated with reference to DMSO controls.

[5] = system: L. major-LUC promastigotes; experiment: L. major-LUC promastigote culture, luminometry; format: cell-based, Leishmania major; details: 48 h, compared with concentrations used against intracellular amastigotes
Protocol: as §1

L. major [6] = experiment: L. major-infected peritoneal macrophages with or without CD3+ T cells, luminometry; format: cell-based, Leishmania major
Protocol: The anti-leishmanial efficacy of AZ was also evaluated in adherent peritoneal macrophages from naïve mice infected in vitro with L. major promastigotes (1 cell: 10 parasites) during 4 h at 34°C. After washing extracellular parasites, infected cells were transferred to white plates (10,000/well) and exposed to AZ. The effect of T cells on parasite burden of AZ-treated cells was evaluated using CD3T+ cells. These cells were isolated by positive selection with magnetic beads (MojoSort, Biolegend) from the lymph nodes of either uninfected or L. major-infected mice (1 infected macrophage: 2 lymphocytes ratio). Parasite burden was determined after 48 h of culture by luminometry.

L. major [7] = experiment: In vivo efficacy in BALB/c mice infected with L. major-LUC
Protocol: Mice were infected in the rump with 10^7 opsonized promastigotes of L. major-LUC as we previously described. The animals were treated starting at day 3 p.i. for up to 10 days. AZ (0.0625 and 0.125 mg/mouse) and FX (40 and 80 mg/kg) were dissolved in sterile PBS and administered by intralesional injection (ID) or gavage (PO), respectively. Mice receiving AZ were treated 3 times at 48-hour intervals. Control mice received sterile PBS according to the route used by each H1RAs (ID or PO). Miltefosine was administered orally at doses of 25 mg/kg or 50 mg/kg for 10 days and used as positive control of parasite suppression. The clinical efficacy was assessed by comparing lesion size (LS) after 10 days of treatment compared with the negative vehicle control as described by Grogl et al.. Therefore, percent suppression was defined as [(LS negative control–LS compound) / LS negative control] x 100. A parasite suppression ≥50% compared with the untreated control was considered significant anti-leishmanial activity. Lesion size (area in mm^2 = length x width) was measured using a digital caliper (Mitutoyo; Kawasaki, Japan).
The parasite burden of individual mice was assessed in vivo at the beginning and end of the experiment using the IVIS Spectrum equipment (Perkin Elmer) by injecting the animals with 1.5 mg luciferin (GoldBio) intradermally at the infection site. The ultrasensitive IVIS camera quantitatively measures the light emitted by the luciferase-transfected L. major upon exposure to the substrate (firefly luciferin). The mice were imaged under deep anesthesia using an isoflurane vaporizer. They were placed in a supine position in the pre-warmed IVIS box and the images were taken exactly 5 minutes after luciferin injection. The analysis was performed after defining a standard region of interest (ROI) over the infection site using the Living Image software (Xenogen Corporation, Almeda, CA). This protocol allowed us to determine the parasite burden in the same animal over multiple time points. Results were expressed in units of photons per second. […] This approach is in accordance with the criteria proposed for Leishmania in deciding when a compound qualifies to progress into ‘lead’ compound identification.

[8] = parameters: method as in PMID 11316966; details: daily oral 4 mg for 21 days, chronic idiopathic urticaria; cited from earlier work
L. infantum [9] = system: L. infantum; parameters: method as in PMID 31002807; details: infected spleen macrophages from hamsters; cited from earlier work
Leishmania mexicana = details: alone or in combination with pentostam; cited from earlier work
L. infantum [10] = system: L. infantum; parameters: method as in PMID 31002807, PMID 24905294; details: cited from earlier work
[11] = AZ 0.06 mg/mouse intralesional, statistically non-significant
[12] = AZ 0.125 mg/mouse intralesional x3, luminometry
[13] = FX lower-dose regimens (40 mg/kg twice a day or 80 mg/kg once a day)

## C[C@@H]1[C@H](O)[C@@H](C)/C=C/C=C/C=C/C=C/C=C/C=C/C=C/[C@H](O[C@@H]2O[C@H](C)[C@@H](O)[C@H](N)[C@@H]2O)C[C@@H]2O[C@](O)(C[C@@H](O)C[C@@H](O)[C@H](O)CC[C@@H](O)C[C@@H](O)CC(=O)O[C@H]1C)C[C@H](O)[C@H]2C(=O)O [Amphotericin B]
L. major [1]; Leishmania major, 48 h
  EC50: 0.5 ± 0.01 µM
[2]
  CC50 at 24 h: 16.3 ± 1.49 µM

## CN1CCCC(n2nc(Cc3ccc(Cl)cc3)c3ccccc3c2=O)CC1 (stereo not shown) [Azelastine]
L. major [1]; Leishmania major, 48 h
  EC50: 0.05 ± 0.02 µM
[2]
  CC50 at 24 h: 45.1 ± 11.2 µM
[3]
  CC50 at 24 h: 0.95 µM
[4]; qPCR, highly variable
  decrease of the expression of IL-6: 20.1± 21%
[4]
  expression of H1R: significantly inhibited its expression
  expression of IL-1ẞ: reduced the pro-inflammatory cytokine IL1-ẞ
[5]
  suppressive effect against cultured promastigotes: suppressive effect against cultured promastigotes only when used at concentrations 100-fold higher
L. major [6]; 0.5 μM, infected naive mouse peritoneal macrophages, 48 h
  intracellular amastigote suppression: positive effect on intracellular amastigote suppression
L. major [6]; in presence of AZ, versus macrophages alone or with naive lymphocytes
  parasite killing with primed T cells from infected mice: significantly enhanced parasite killing
L. major [7]; [11]
  reduction of parasite burden in lymph node: 15%
  reduction of parasite burden in the lesion: 57%
L. major [7]; [12]
  reduction of parasite load in lymph node: 36%
  reduction of parasite load in the lesion: 87%
L. major [7]; AZ 0.125 mg/mouse, three intralesional injections every other day
  lesion diminution compared with untreated controls: 52%
L. major [7]; AZ intralesional, 0.125 mg/mouse, listed as AZ
  weight loss or observable side effect: no observable side effects; also recorded: None of the mice treated with this compound presented weight loss or any observable side effect
[8]
  side effects: lack of side effects

## CN(C)CCN(Cc1ccc(Cl)cc1)c1ccccn1 [Chloropyramine]
L. major [1]
  EC50: 3.87 ± 0.2 µM
L. major [1]; listed as chloropyramine
  EC50: < 10 µM
[2]
  CC50 at 24 h: 140 ± 49.6 µM

## CN1CCC(=C2c3ccccc3C=Cc3ccccc32)CC1 [Cyproheptadine]
[2]
  CC50 at 24 h: 172 ± 41 µM

## CN(C)CC[C@@H](c1ccc(Cl)cc1)c1ccccn1 [Dexchlorpheniramine maleate]
L. major [1]; Leishmania major, 48 h
  EC50: 35.2 ± 6.9 µM
[2]
  CC50 at 24 h: 177 ± 16.3 µM

## CC(C)(C(=O)O)c1ccc(C(O)CCCN2CCC(C(O)(c3ccccc3)c3ccccc3)CC2)cc1 (stereo not shown) [Fexofenadine]
L. major [1]; Leishmania major, 48 h
  EC50: 1.5 ± 0.18 µM
L. major [7]; FX 40 mg/kg PO twice a day
  reduction in lesion size: 50%
L. major [7]; FX 80 mg/kg PO once a day
  reduction in lesion size: 37%
L. major [7]; FX 80 mg/kg PO twice a day
  loss of body weight: ≤ 5%
  reduction in lesion size compared with untreated control: 69%
  reduction in parasite burden at the lesion site: 82%
  reduction in parasite burden in draining lymph nodes: 81%
L. major [7]; FX PO, 80 mg/kg twice a day, listed as FX, 80 mg/kg
  clinical side effects: no observable side effects; also recorded: no other clinical side effect was found
L. major [7]; [13]
  reduction of parasite load in lesions: up to 59%
  reduction of parasite load in lymph nodes: ≤ 72%
L. infantum [9]
  IC50: > 100 µM

## CN1CCC(=C2c3ccccc3CC(=O)c3sccc32)CC1 [Ketotifen]
L. major [1]; Leishmania major, 48 h
  EC50: 11.86 ± 0.1 µM
[2]
  CC50 at 24 h: 282 ± 22.9 µM

## c1ccc2c(c1)Sc1ccccc1N2CC1CN2CCC1CC2 (stereo not shown) [Mequitazine]
L. major [1]
  EC50: 4.53 ± 3.9 µM
L. major [1]; listed as mequitazine
  EC50: < 10 µM
[2]
  CC50 at 24 h: 50.3 ± 8.75 µM

## CN1CCN2c3ccccc3Cc3ccccc3C2C1 (stereo not shown) [Mianserin]
[2]
  CC50 at 24 h: 157 ± 19 µM

## CCCCCCCCCCCCCCCCOP(=O)([O-])OCC[N+](C)(C)C [Miltefosine]
L. major [1]; Leishmania major, 48 h
  EC50: 1.64 ± 0.26 µM
[2]
  CC50 at 24 h: 74.9 ± 5.01 µM

## Cc1ccc(/C(=C\CN2CCCC2)c2ccccn2)cc1 [Triprolidine]
L. major [1]; Leishmania major, 48 h
  EC50: 11.2 ± 4.2 µM
[2]
  CC50 at 24 h: 390 ± 27.9 µM

## CN/C(=N/CCSCc1nc[nH]c1C)NC#N [cimetidine]
Leishmania mexicana
  treatment efficacy: effective

## C(=C\c1ccccc1)/CN1CCN(C(c2ccccc2)c2ccccc2)CC1 [cinnarizine]
L. infantum [10]
  parasite load in hamster spleen: failed to significantly decrease the parasite load

## NCCc1c[nH]cn1 [histamine]
[4]
  expression of H1R: markedly increased the expression of H1R
  expression of IL-1ẞ: increased the expression of IL-1ẞ
